{"source": "patent US20140165223A1", "about": "“TNF SUPERFAMILY TRIMERIZATION INHIBITORS” (B.S.R.C. \"Alexander Fleming\", priority 2011, published 2014)", "key": {"soluble mouse RANKL": {"target": "T1, soluble mouse RANKL (Mus musculus, UniProt O35235)", "T1 construct": "a cDNA encoding the core ectodomain of murine RANKL residues 158-316, with or without the G278R substitution; GST (N, cleaved yes); made in house; host or cells: Escherichia coli BL21", "T1 sequence (O35235 158-316)": "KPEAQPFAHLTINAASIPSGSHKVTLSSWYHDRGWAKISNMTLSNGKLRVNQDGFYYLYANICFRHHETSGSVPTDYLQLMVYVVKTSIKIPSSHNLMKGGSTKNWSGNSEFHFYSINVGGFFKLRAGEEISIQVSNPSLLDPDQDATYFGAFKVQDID", "experiment": "Soluble mouse RANKL preincubated with SPD304: native gel and DSS cross-linking", "type": "biochemical", "protocol": "FIG. 13. Effect of SDP304 on RANKL structure. (Panel A) RANKL dimer with SPD304 located on optimum binding position. G278 is shown with space-filled atoms and SPD304 with doted surface. Cyan and green ribbons represent the two RANKL monomers. Diagram created using PYMOL v1.3. (Panel B) Recombinant WT soluble mouse RANKL (60 ng) was preincubated for 1 hour at 37° C. either with SPD304 at various concentrations from 6-200 μM or without SPD304 (−), resolved on native gel and detected by Western blotting using a polyclonal antibody against RANKL. (Panel C) Recombinant soluble mouse RANKL was preincubated with SPD304 at increasing concentrations from 6-100 μM, was cross-linked with DSS, run on 12% SDS-PAGE and detected by Western blot using an anti-RANKL polyclonal antibody. A representative figure of three independent experiments is shown for Western blots.\nExperimental evidence on the TNF analogue and in silico binding studies on mouse RANKL confirm that the optimal binding position of SPD304, causing trimer inhibition, is located very close (<4 Å) to the G278 mutation position in the structure (FIG. 13, Panel A). To experimentally confirm the interference of the SPD304 with the RANKL structure, soluble mouse RANKL was preincubated with increasing concentrations of SPD304 (6-200 μM) and analyzed in native gels showing the natural conformation of RANKL protein (FIG. 13, Panel B). […]"}, "TNF": {"target": "TNF (Homo sapiens, UniProt P01375)", "sequence (P01375 77-233 limits assumed)": "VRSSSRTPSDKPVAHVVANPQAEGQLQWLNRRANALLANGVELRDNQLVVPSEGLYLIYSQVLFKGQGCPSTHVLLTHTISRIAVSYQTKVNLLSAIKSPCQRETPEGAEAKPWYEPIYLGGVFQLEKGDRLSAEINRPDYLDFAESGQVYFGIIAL", "conditions": "cited from earlier work"}, "GST-RANKL": {"target": "T2, GST-RANKL (Mus musculus, UniProt O35235)", "T2 construct": "a cDNA encoding the core ectodomain of murine RANKL residues 158-316, with or without the G278R substitution; made in house; host or cells: Escherichia coli BL21", "T2 sequence (O35235 158-316)": "T1 sequence (O35235 158-316)", "experiment": "Ex vivo RANKL-induced osteoclast formation (BM cells, M-CSF + GST-RANKL, TRAP staining)", "type": "cell-based", "conditions": "BM cells, 25 ng/ml M-CSF, 80 ng/ml GST-RANKL", "protocol": "Instead, WT GST-RANKL (ratio 1:0) induced formation of TRAP+ giant osteoclasts (FIGS. 5A-5C). […] Incubation of WT GST-RANKL with GST at similar concentrations (12.5-100 ng/ml), didn't affect the formation of osteoclasts.\nA novel small molecule inhibitor of TNF trimerization, named SPD304, has been recently reported^[35] to interact with glycine 122 (G122) that corresponds to G278 in RANKL.\nBM cells were collected after flushing out of femurs and tibiae, subjected to gradient purification using FICOLL-PAQUE™ (GE Healthcare), plated in 24-well plates at a density of 5×10^5 cells per well and cultured in αMEM medium (GIBCO) containing 10% fetal bovine serum supplemented with 40 ng/ml RANKL (R&D Systems) and 25 ng/ml M-CSF (R&D Systems) for 5 days. Similarly, splenocytes were collected, plated in 24-well plates at a density of 10^6 cells per well and cultured in the presence of recombinant RANKL and M-CSF for 6 days. GST-RANKL^G278R was pre-incubated with WT GST-RANKL at room temperature for 20 min, prior to the stimulation of the BM cell cultures, in order to enable exchange of the RANKL variants and heterotrimer formation. Small molecule SPD304 (Sigma-Aldrich) was pre-incubated with 80 ng/ml GST-RANKL at various concentrations from 0.25 to 2 μM in αMEM medium for 1 hour at room temperature and then added to culture. Osteoclasts were stained for TRAP activity."}, "human RANKL": {"target": "T3, human RANKL (Homo sapiens, UniProt O14788)", "T3 construct": "purchased Peprotech", "T3 sequence (O14788 143-317 limits assumed)": "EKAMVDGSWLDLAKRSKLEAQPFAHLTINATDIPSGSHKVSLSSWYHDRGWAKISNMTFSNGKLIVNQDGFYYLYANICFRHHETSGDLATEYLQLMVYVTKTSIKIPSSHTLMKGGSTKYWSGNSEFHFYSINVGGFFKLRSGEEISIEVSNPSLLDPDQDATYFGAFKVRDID", "experiment": "RANKL-mediated osteoclastogenesis assay with human RANKL", "type": "cell-based", "excerpt": "However, SPD304 contains a potentially toxic 3-substituted indole moiety that produces reactive intermediates that possibly cause toxicities by covalently binding to nucleophilic residues of protein and/or DNA. […] These small molecules have been also tested as regards their effect on cell toxicity (FIG. 14C).\nBM cells were collected after flushing out of femurs and tibiae, subjected to gradient purification using FICOLL-PAQUE™ (GE Healthcare), plated in 96-well plates at a density of 6×10^4 cells per well and cultured in αMEM medium (GIBCO) containing 10% fetal bovine serum supplemented with 50 ng/ml human RANKL (Peprotech) and 25 ng/ml M-CSF (R&D Systems) for 5 days. […] Osteoclasts were stained for TRAP activity (Sigma)."}, "osteoclast precursors": {"system": "osteoclast precursors", "experiment": "MTT survival assay in osteoclast precursors", "type": "cell-based", "protocol": "(§1) However, SPD304 contains a potentially toxic 3-substituted indole moiety that produces reactive intermediates that possibly cause toxicities by covalently binding to nucleophilic residues of protein and/or DNA. […] Therefore, we investigated the potential of testing SPD304 derivatives designed to be less toxic with higher specificity for human RANKL. […] These small molecules have been also tested as regards their effect on cell toxicity (FIG. 14C).\n(§2) Bone marrow (BM) cells were plated in 96-well plates at a density of 10^5 cells per well after gradient purification using FICOLL-PAQUE™ (GE Healthcare). BM cells were cultured in αMEM medium (GIBCO) containing 10% fetal bovine serum supplemented with 25 ng/ml M-CSF (R&D Systems) in the presence of the tested compounds at concentrations from 1-20 μM for 2 days (0.1% DMSO). Serum free a-MEM medium containing 0.5 mg/ml MTT [3-(4,5-Dimethylthiazol-2-yl)-2,5-diphenyltetrazolium bromide] was added for 2 hours in a 37° C. CO2 incubator. After removal of the MTT solution, DMSO was added to extract the dye from the cells and cell viability was accessed at 550 nm."}, "[1]": {"experiment": "MTT survival assay in osteoclast precursors", "type": "cell-based", "conditions": "M-CSF, 1-20 μM, 2 days, read-out: IC50 in MTT survival assay (cell toxicity)", "protocol": "as §1, §2"}, "BAFF": {"target": "T4, BAFF (Homo sapiens, UniProt Q9Y275)", "T4 construct": "a cDNA encoding the core ectodomain of human BAFF residues 134-285 (17.5 kD), with or without the G249R substitution; GST (N, cleaved yes); made in house; host or cells: E. coli BL21", "T4 sequence (Q9Y275 134-285)": "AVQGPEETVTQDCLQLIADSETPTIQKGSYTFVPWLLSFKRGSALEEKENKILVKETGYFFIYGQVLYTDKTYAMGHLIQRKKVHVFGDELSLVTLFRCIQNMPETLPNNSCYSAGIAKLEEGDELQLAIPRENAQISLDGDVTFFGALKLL", "experiment": "BAFF cross-linking and Western (trimer formation)", "type": "biochemical", "conditions": "DSS cross-linking", "excerpt": "(§3) Glycine at codon 278 of mouse RANKL is highly conserved among various members of the TNF superfamily. In order to investigate whether this glycine to arginine substitution is also critical for trimerization in other TNF superfamily members, we reproduced this mutation in human BAFF (BAFF^G249R), a cytokine that activates B lymphocytes. Thus, we produced recombinant GST-BAFF in E coli and subsequently the soluble BAFF was released from GST by proteolytic cleavage. […] To examine whether soluble BAFF^G249R binds to BAFF receptor (BAFFR), serial dilutions of human BAFFR-Fc were incubated with immobilized soluble BAFF or BAFF^G249R (FIG. 21B). […] Thus, substitution of this conserved glycine abrogates trimerization not only in RANKL but also in other TNF superfamily members such as TNF, BAFF and possibly in many more.\nThe chemical cross-linking reagent disuccinimidyl suberate (DSS, Sigma) was used to examine the trimeric property of BAFF as previously described (Douni et al., 2012). Various amounts of BAFF proteins in PBS buffer (pH 7.5) were mixed with 1 mM DSS (the molar ratio of DSS is 10:1). The cross-linking reactions were carried out for 1 hour at room temperature and terminated with 50 mM Tris (pH 7.5) for 30 minutes. Proteins from reaction mixtures were separated on 12% SDS-PAGE and proceeded in Western blot using a polyclonal anti-BAFF antibody (PeproTech)."}, "BAFFR-Fc": {"system": "BAFFR-Fc", "experiment": "BAFF/BAFF receptor ELISA", "type": "binding", "conditions": "serial dilutions of human BAFFR-Fc", "excerpt": "as §3\nNunc plates were coated with 3 μg/ml recombinant soluble human BAFF or BAFF^G249R and incubated with increasing amount of recombinant human BAFFR-Fc (R&D Systems). BAFFR binding was detected with a horseradish peroxidase (HRP) conjugated goat anti-human IgG (Fc) (SouthernBiotech, Birmingham, USA) using o-phenylenediamine (OPD) substrate (Thermo Scientific Pierce) that was measured at 490 nm."}, "[2]": {"target": "T5, binding of human RANKL to its receptor RANK (Homo sapiens, UniProt O14788)", "T5 construct": "a cDNA encoding the core ectodomain of human RANKL residues 143-317 (20 kD), was cloned into pGEX-6P-1; GST (N, cleaved yes); host or cells: Escherichia coli BL21 (RANKL)", "T5 sequence (O14788 143-317)": "T3 sequence (O14788 143-317 limits assumed)", "experiment": "RANKL/RANK ELISA", "conditions": "peptides 3-100 μM, dose dependent", "protocol": "Nunc plates were coated with 100 μl of 250 ng/ml recombinant soluble human RANK-Fc (R&D Systems) overnight. Recombinant soluble human RANKL at 200 ng/ml was pre-incubated with increasing amounts of peptides (3-100 μM) for 1 hour at 37° C. and was added in the RANK-coated wells. RANKL binding was detected with a polyclonal goat anti-RANKL antibody (R&D Systems), followed by a horseradish peroxidase (HRP) conjugated horse anti-goat IgG (Vector) using o-phenylenediamine (OPD) substrate (Thermo Scientific Pierce) that was measured at 490 nm."}}}
{"compound": "Cc1cc2occ(CN(C)CCN(C)Cc3cn(-c4cccc(C(F)(F)F)c4)c4ccccc34)c(=O)c2cc1C", "note": "[SPD304, 6,7-Dimethyl-3-[[methyl[2-[methyl[[1-[3-(trifluoromethyl)phenyl]-1H-indol-3-yl]methyl]amino]ethyl]amino]methyl]-(4H-1-Benzopyran-4-one)]", "values": [{"measurement": "RANKL forms after chemical cross-linking", "setting": "soluble mouse RANKL; SPD304 6-100 μM, DSS", "value": "dramatic increase of RANKL dimers and monomers"}, {"measurement": "RANKL conformation in native gel", "setting": "soluble mouse RANKL; SPD304 6-200 μM, 1 hour at 37° C.", "value": "a second band of lower molecular weight was also evident"}, {"measurement": "inhibition of TNF trimerization and function", "setting": "TNF", "value": "effectively inhibits TNF trimerization and function"}, {"measurement": "formation of TRAP+ multinucleated osteoclasts", "setting": "GST-RANKL; SPD304 at 1 μM", "value": "attenuated both the number and the size of TRAP+ multinucleated cells"}, {"measurement": "formation of multinuclear TRAP+ osteoclasts", "setting": "GST-RANKL; SPD304 at 2 μM", "value": "completely inhibited"}, {"measurement": "inhibition of human RANKL function in osteoclastogenesis", "setting": "human RANKL; 2 μM", "value": "effective in inhibiting human RANKL function"}, {"measurement": "toxic concentrations in MTT survival assay", "setting": "osteoclast precursors", "value": "above 5 μM"}, {"measurement": "IC50 at 2 days", "setting": "[1]", "value": 3.4, "unit": "µM"}]}
{"compound": "BAFF^G249R: soluble human BAFF residues 134-285 with the G249R substitution", "values": [{"measurement": "BAFF trimer assembly", "setting": "BAFF", "value": "failure of spontaneous trimer assembly"}, {"measurement": "binding to BAFF receptor", "setting": "BAFFR-Fc", "value": "cannot bind to its receptor"}]}
{"compound": "HFYSINVGRFFK (RANKL fragment) [peptide 2]", "values": [{"measurement": "inhibition of RANKL function in RANKL-dependent osteoclastogenesis assays", "setting": "human RANKL; peptides at 50 μM (FIG. 16A)", "value": "inhibited the function of RANKL"}, {"measurement": "inhibition of binding of human RANKL to RANK", "setting": "[2]", "value": "inhibit the binding of human RANKL to its receptor RANK"}]}
